Patent US8268849B2, “Multifunctional Antioxidants and methods of use thereof” (priority 2007, dated 2012)
“Also recorded” adds a separate entry of the source.

Columns and labels:
[1] = Chelation study by ESI-MS, Fe^2+ solution; assay type: binding; conditions: 10:1 metal:compound, 45 minutes of mixing
Experimental: (§1) The relative amount of ions bound by JHX-1-JHX-8 was determined by electrospray ionization mass spectrometry (ESI-MS) according to the method of Baron and Hering (Baron and Hering (1998) Spectrometry J. Environ. Qual., 27:844-850). In this method solutions containing Fe^2+, Fe^3+, Cu^1+, Cu^2+, Zn^2+, Ca^2+, Mg^2+ were mixed with compound in ratios of 10:1, 1:1, and 1:10. After 45 minutes of mixing, each solution was directly infused into the MS with constant ionization energy and the relative decreases of the parent peaks in these solutions were determined. […] FIG. 3 illustrates ion binding with increased Fe^+2 concentrations results in decreased compound parent peak heights by ESI-MS when compounds contain appropriate functional groups for metal ion chelation.

[2] = Chelation study by ESI-MS, Fe^3+ solution; assay type: binding; conditions: 10:1 metal:compound, 45 minutes of mixing
Experimental: as §1

[3] = Chelation study by ESI-MS, Cu^1+ solution; assay type: binding; conditions: 10:1 metal:compound, 45 minutes of mixing
Experimental: as §1

[4] = Chelation study by ESI-MS, Cu^2+ solution; assay type: binding; conditions: 10:1 metal:compound, 45 minutes of mixing
Experimental: as §1

[5] = Chelation study by ESI-MS, Zn^2+ solution; assay type: binding; conditions: 10:1 metal:compound, 45 minutes of mixing
Experimental: as §1

[6] = Chelation study by ESI-MS, Ca^2+ solution; assay type: binding; conditions: 10:1 metal:compound, 45 minutes of mixing
Experimental: as §1

[7] = Chelation study by ESI-MS, Mg^2+ solution; assay type: binding; conditions: 10:1 metal:compound, 45 minutes of mixing
Experimental: as §1

[8] = Chelation studies by ESI-MS, overall statement on ion binding; conditions: binding order Cu^1+=Cu^2+>Fe^2+=Fe^3+>Zn^2+; no binding with Ca^2+ or Mg^2+
Experimental: as §1

[9] = tested on: SRA-1 human lens epithelial cells; assay: ROS staining (H2DCF-DA) in lens epithelial cells; assay type: cell-based; conditions: 24 hour incubation, H2DCF-DA stain; for ROS staining, ROS generated by Fenton reaction: 0.1 mM Fe^2+ and 0.1 mM hydrogen peroxide; for ROS staining, ROS initiated by homocysteine: 10 mM homocysteine (ER stress)
Experimental: The SRA-1 human lens epithelium cell line (Ibaraki et al. (1998) Exp. Eye Res., 67:577-85) was used to evaluate the antioxidant activity of JHX-1-8. These cells were cultured in DMEM media containing 10% fetal bovine serum (FBS), glutamine, NaHCO3, penicillin, and streptomycin at 37° C. in humidified atmosphere of 5% CO2 and 95% air until subconfluent (2-4 days). The cells were passaged when 80-90% confluent by treatment with trypsin-EDTA. The cells were plated at a density of 1×10^4 cells onto 96-well plates or 1×10^6 cells onto 100-mm dishes. ROS levels/effects in cells treated with JHX-1-8 were compared to similar cells treated with the water soluble Vitamin E derivative, Trolox (antioxidant control) or no drug (control).
The compounds were initially screened for antioxidant activity in 24 hour cultured SRA-1 human lens epithelial cells. Reactive oxygen species (ROS) in these cells were generated through both the Fenton reaction in which 0.1 mM Fe^2+ and 0.1 mM hydrogen peroxide were added to the culture media, or by culturing the lens with 10 mM homocysteine which induces endoplasmic reticular (ER) stress that results in the unfolded protein response (UPR) that subsequently generates the ROS. ROS were visualized with 2′,7′-dichlorodihydrofluorescein diacetate (DCF) staining. More specifically, after 24 hours of incubation, all cells were washed 2× with PBS and then incubated at room temperature for 1 hour with 10 μM H2DCF-DA (Invitrogen) stain. Fluorescent ROS staining was analyzed by quantifying pixel intensities of images obtained by fluorescent microscopy. As illustrated below in FIGS. 4A and 4B, compounds with chelating groups only produced a dose-dependent reduction in Fenton Reaction generated ROS. […] Indeed, homocysteine activates ER stress which subsequently initiates ROS through an Unfolded Protein Response (UPR).

[10] = tested on: SRA-1 human lens epithelium cell line; assay: MTS cell viability assay; assay type: cell-based; conditions: 1 mM compound; for protection against H2O2 induced loss of cell viability: 1.0 mM H2O2, 2 hours
Experimental: The SRA-1 human lens epithelium cell line (Ibaraki et al. (1998) Exp. Eye Res., 67:577-85) was used to evaluate the antioxidant activity of JHX-1-8. […] The cells were passaged when 80-90% confluent by treatment with trypsin-EDTA. The cells were plated at a density of 1×10^4 cells onto 96-well plates or 1×10^6 cells onto 100-mm dishes. ROS levels/effects in cells treated with JHX-1-8 were compared to similar cells treated with the water soluble Vitamin E derivative, Trolox (antioxidant control) or no drug (control). […] Cells were cultured in 96-well plates and exposed for 2 hours to media containing 1.0 mM H2O2 (FIG. 5A) or Fenton reagents (1.0 mM H2O2 and 1.0 mM Fe^2+, FIG. 5B) with/without 1 mM JHX-1-8 or Trolox. Viability was measured as the absorbance of MTS stain at 490 nm 1 hour after the addition of 20 μL of […] AQueous One Solution Cell Proliferation Assay to each well. The results were normalized to blank control (100%) since absorbance is directly proportional to the living cell population.

[11] = Gino et al. (2001); cited from earlier work
[12] = Gino et al. (2001); cited from earlier work; remark: listed apart in the source
[13] = tested on: diabetic cataract formation; assay: Cataract formation in diabetic rats; assay type: in vivo; conditions: streptozotocin diabetic rats
Experimental: Diabetes was induced in 100 g Sprague Dawley rats with streptozotocin injection (75 mg/kg) and all rats with blood sugar levels >300 mg/dL were divided into 4 groups of 8 rats each. One group received only standard rat chow (untreated diabetic) while each of the other groups received chow containing either 0.0125% ARI Al1576, 0.025% JHX-4 or 0.025% JHX-8. Lens changes were monitored by at 3-5 day intervals by slit lamp following tropicamide mydriasis. As summarized in FIGS. 8A-8C, vacuole formation began by 14 days in the untreated diabetic group with cortical opacities observed by 29 days and mature cataracts by 44 days. […] In the two antioxidant treated groups, vacuole formation was delayed by 19 and 11 days by JHX-4 and JHX-8, respectively, and cortical cataracts by 9 and 3 days, respectively. At the end of the study (47 days) all rats were equally diabetic with HbA1C levels >11.9%. All eyes were enucleated and lens sorbitol levels were measured as previously described (Kador et al. (2007) J. Ocul. Pharmacol. Ther., 23:116-23). […] Tissue levels of JHX-4 and -8 in the lens, neural retina and brain were determined after 47 days of feeding as described above (FIG. 10). […] Overall drug levels in both the lens and retina were ca. 3-fold higher in the diabetic rats with brain levels also now present. This increase may be due to either an accumulation of drug, or increased permeability of tissues and the BBB to drug in streptozotocin diabetic rats (Mooradian et al. (2005) Diabetes, 54:2977-82).

| SMILES | % Parent Peak Remaining at 10:1 Solution of Metal:Compound [1] [%] | % Parent Peak Remaining at 10:1 Solution of Metal:Compound [2] [%] | % Parent Peak Remaining at 10:1 Solution of Metal:Compound [3] [%] | % Parent Peak Remaining at 10:1 Solution of Metal:Compound [4] [%] | % Parent Peak Remaining at 10:1 Solution of Metal:Compound [5] [%] | % Parent Peak Remaining at 10:1 Solution of Metal:Compound [6] [%] | % Parent Peak Remaining at 10:1 Solution of Metal:Compound [7] [%] | ion binding [8] | ROS staining, ROS generated by Fenton reaction [9] | ROS staining, ROS initiated by homocysteine [9] | protection against H2O2 induced loss of cell viability [10] | reactivity toward alkyl radicals compared to α-tocopherol [11] [fold] | reactivity to peroxy radicals compared to α-tocopherol [12] | increase of HLEC viability compared to controls ([10]; Fenton reagents (1.0 mM H2O2 and 1.0 mM Fe^2+), 2 hours) [%] | lens changes by slit lamp ([13]; 0.0125% in chow, 47 days) | lens sorbitol levels ([13]; end of study (47 days)) |
| --- | --- | --- | --- | --- | --- | --- | --- | --- | --- | --- | --- | --- | --- | --- | --- | --- |
| Cc1nc(N(C)C)nc(C)c1O [2-N,N-Dimethyl-4,6-dimethyl-5-hydroxypyrimidine] |  |  |  |  |  |  |  |  |  |  |  | 5 | essentially equally reactive |  |  |  |
| Cc1c(C)c2c(c(C)c1O)CCC(C)(C(=O)O)O2 (stereo not shown) [Trolox, reference compound] |  |  |  |  |  |  |  |  |  |  |  |  |  | 15 |  |  |
| O=C1NC(=O)C2(N1)c1cc(F)ccc1-c1ccc(F)cc12 [AL1576, reference compound] |  |  |  |  |  |  |  |  |  |  |  |  |  |  | No lens changes were observed | No sorbitol was present |

The next lines start with results.

| % Parent Peak Remaining at 10:1 Solution of Metal:Compound [1] [%] | % Parent Peak Remaining at 10:1 Solution of Metal:Compound [2] [%] | % Parent Peak Remaining at 10:1 Solution of Metal:Compound [3] [%] | % Parent Peak Remaining at 10:1 Solution of Metal:Compound [4] [%] | % Parent Peak Remaining at 10:1 Solution of Metal:Compound [5] [%] | % Parent Peak Remaining at 10:1 Solution of Metal:Compound [6] [%] | % Parent Peak Remaining at 10:1 Solution of Metal:Compound [7] [%] | SMILES | ion binding [8] | ROS staining, ROS generated by Fenton reaction [9] | ROS staining, ROS initiated by homocysteine [9] | protection against H2O2 induced loss of cell viability [10] | reactivity toward alkyl radicals compared to α-tocopherol [11] [fold] | reactivity to peroxy radicals compared to α-tocopherol [12] | increase of HLEC viability compared to controls ([10]; Fenton reagents (1.0 mM H2O2 and 1.0 mM Fe^2+), 2 hours) [%] | lens changes by slit lamp ([13]; 0.0125% in chow, 47 days) | lens sorbitol levels ([13]; end of study (47 days)) |
| --- | --- | --- | --- | --- | --- | --- | --- | --- | --- | --- | --- | --- | --- | --- | --- | --- |
| 7.3 | 7.6 | 4.1 | 3.4 | 13.8 | 100.0 | 100.0 | COc1cc(OC)nc(N2CC(=O)N(S(=O)(=O)N(C)C)C(=O)C2)n1 [JHX-7, 1-N,N′-dimethylsulfamoyl-4-(4,6-dimethoxy-2-pyrimidyl)piperazine-2,6-dione] | bind ions | decreased staining; also recorded: protected against ROS |  |  |  |  |  |  |  |
| 100.0 | 100.0 | 100.0 | 100.0 | 100.0 | 100.0 | 100.0 | COc1cc(OC)nc(N2CCN(S(=O)(=O)N(C)C)CC2)n1 [JHX-5, 1-N,N′-dimethylsulfamoyl-4-(4,6-dimethoxy-2-pyrimidyl)piperazine] |  |  |  |  |  |  |  |  |  |
| 100.0 | 100.0 | 100.0 | 100.0 | 100.0 | 100.0 | 100.0 | COc1nc(N2CCN(S(=O)(=O)N(C)C)CC2)nc(OC)c1O [JHX-6, 1-N,N′-dimethylsulfamoyl-4-(4,6-dimethoxy-5-hydroxy-2-pyrimidyl)piperazine] |  |  | reduced ROS staining similar to that with Trolox | protecting against H2O2 induced loss of cell viability |  |  |  |  |  |
| 100.0 | 100.0 | 100.0 | 100.0 | 100.0 | 100.0 | 100.0 | CN(C)S(=O)(=O)N1CCN(c2ncc(O)cn2)CC1 [JHX-2, 1-N,N′-dimethylsulfamoyl-4-(5-hydroxy-2-pyrimidyl)piperazine] |  |  | reduced ROS staining similar to that with Trolox | protecting against H2O2 induced loss of cell viability |  |  |  |  |  |
| 8.1 | 10.0 | 3.6 | 4.4 | 15.3 | 100.0 | 100.0 | CN(C)S(=O)(=O)N1C(=O)CN(c2ncccn2)CC1=O [JHX-3, 1-N,N′-dimethylsulfamoyl-4-(2-pyrimidyl)piperazine-2,6-dione] | bind ions | decreased staining; also recorded: protected against ROS |  |  |  |  |  |  |  |
| 100.0 | 100.0 | 100.0 | 100.0 | 100.0 | 100.0 | 100.0 | CN(C)S(=O)(=O)N1CCN(c2ncccn2)CC1 [JHX-1, 1-N,N′-dimethylsulfamoyl-4-(2-pyrimidyl)piperazine] |  |  |  |  |  |  |  |  |  |
